According to the supplement of paper PMC10883282:

Tests used:
Test in all cases: relative viability vs DMSO control (72 h) (fraction); higher = more viable cells
RD = test system: RD
Procedure, shortened: (§1)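 Sarcoma cell lines in 384-well plates, seeded to reach 80–90% confluence, were given compound after 24 h and kept 72 h at 37 °C, 5% CO2, with 0.1% DMSO vehicle and a 5 µM positive control. Relative viability came from ATPLite as percent growth, averaged over up to triplicate wells. On the rescaled values, 1 equals full and 0 equals none.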

SK-ES-1 = test system: SK-ES-1
Procedure, shortened: as §1

HT1080 = test system: HT1080
Procedure, shortened: as §1

KHOS-240S = test system: KHOS-240S
Procedure, shortened: as §1

SK-LMS-1 = test system: SK-LMS-1
Procedure, shortened: as §1

VA-ES-BJ = test system: VA-ES-BJ
Procedure, shortened: as §1

MES-SA = test system: MES-SA
Procedure, shortened: as §1

G401 = test system: G401
Procedure, shortened: as §1

SW1353 = test system: SW1353
Procedure, shortened: as §1

RD-ES = test system: RD-ES
Procedure, shortened: as §1

SYO-1 = test system: SYO-1
Procedure, shortened: as §1

SW982 = test system: SW982
Procedure, shortened: as §1

COc1cc(OC)c(/C=C/S(=O)(=O)Cc2ccc(OC)c(NCC(=O)O)c2)c(OC)c1 [Rigosertib]
Conditions | relative viability
G401, 0.00017 µM | 1.01
G401, 0.00051 µM | 1
G401, 0.00152 µM | 0.993
G401, 0.00457 µM | 1.02
G401, 0.01372 µM | 1.04
G401, 0.04115 µM | 1.01
G401, 0.1235 µM | 0.983
G401, 0.3704 µM | 0.919
G401, 1.111 µM | 0.534
G401, 3.333 µM | 0.424
G401, 10 µM | 0.361
HT1080, 0.00017 µM | 1.07
HT1080, 0.00051 µM | 1.03
HT1080, 0.00152 µM | 1.07
HT1080, 0.00457 µM | 1.06
HT1080, 0.01372 µM | 1.05
HT1080, 0.04115 µM | 1.08
HT1080, 0.1235 µM | 1.06
HT1080, 0.3704 µM | 0.412
HT1080, 1.111 µM | 0.0983
HT1080, 3.333 µM | 0.0596
HT1080, 10 µM | 0.0541
KHOS-240S, 0.00017 µM | 1.06
KHOS-240S, 0.00051 µM | 1.07
KHOS-240S, 0.00152 µM | 1.051
KHOS-240S, 0.00457 µM | 1.05
KHOS-240S, 0.01372 µM | 1.03
KHOS-240S, 0.04115 µM | 0.981
KHOS-240S, 0.1235 µM | 0.385
KHOS-240S, 0.3704 µM | 0.228
KHOS-240S, 1.111 µM | 0.168
KHOS-240S, 3.333 µM | 0.15
KHOS-240S, 10 µM | 0.135
MES-SA, 0.00017 µM | 0.901
MES-SA, 0.00051 µM | 0.906
MES-SA, 0.00152 µM | 0.911
MES-SA, 0.00457 µM | 0.91
MES-SA, 0.01372 µM | 0.918
MES-SA, 0.04115 µM | 0.932
MES-SA, 0.1235 µM | 0.607
MES-SA, 0.3704 µM | 0.271
MES-SA, 1.111 µM | 0.172
MES-SA, 3.333 µM | 0.13
MES-SA, 10 µM | 0.13
RD, 0.00017 µM | 1.08
RD, 0.00051 µM | 1.09
RD, 0.00152 µM | 1.08
RD, 0.00457 µM | 1.094
RD, 0.01372 µM | 1.05
RD, 0.04115 µM | 1.04
RD, 0.1235 µM | 0.825
RD, 0.3704 µM | 0.372
RD, 1.111 µM | 0.215
RD, 3.333 µM | 0.23
RD, 10 µM | 0.256
RD-ES, 0.00017 µM | 0.999
RD-ES, 0.00051 µM | 1
RD-ES, 0.00152 µM | 1
RD-ES, 0.00457 µM | 0.993
RD-ES, 0.01372 µM | 1.01
RD-ES, 0.04115 µM | 1
RD-ES, 0.1235 µM | 0.732
RD-ES, 0.3704 µM | 0.143
RD-ES, 1.111 µM | 0.0474
RD-ES, 3.333 µM | 0.031
RD-ES, 10 µM | 0.027
SK-ES-1, 0.00017 µM | 1
SK-ES-1, 0.00051 µM | 1.02
SK-ES-1, 0.00152 µM | 0.98
SK-ES-1, 0.00457 µM | 1.08
SK-ES-1, 0.01372 µM | 1.03
SK-ES-1, 0.04115 µM | 0.987
SK-ES-1, 0.1235 µM | 0.252
SK-ES-1, 0.3704 µM | 0.038
SK-ES-1, 1.111 µM | 0.0202
SK-ES-1, 3.333 µM | 0.0195
SK-ES-1, 10 µM | 0.0239
SK-LMS-1, 0.00017 µM | 1.08
SK-LMS-1, 0.00051 µM | 1.05
SK-LMS-1, 0.00152 µM | 1.05
SK-LMS-1, 0.00457 µM | 1.03
SK-LMS-1, 0.01372 µM | 1.03
SK-LMS-1, 0.04115 µM | 0.912
SK-LMS-1, 0.1235 µM | 0.659
SK-LMS-1, 0.3704 µM | 0.492
SK-LMS-1, 1.111 µM | 0.359
SK-LMS-1, 3.333 µM | 0.355
SK-LMS-1, 10 µM | 0.325
SW982, 0.00017 µM | 1.06
SW982, 0.00051 µM | 1.04
SW982, 0.00152 µM | 1.05
SW982, 0.00457 µM | 1.07
SW982, 0.01372 µM | 1.07
SW982, 0.04115 µM | 1.06
SW982, 0.1235 µM | 0.92
SW982, 0.3704 µM | 0.52
SW982, 1.111 µM | 0.26
SW982, 3.333 µM | 0.256
SW982, 10 µM | 0.273
SW1353, 0.00017 µM | 1
SW1353, 0.00051 µM | 1.01
SW1353, 0.00152 µM | 0.994
SW1353, 0.00457 µM | 0.989
SW1353, 0.01372 µM | 0.992
SW1353, 0.04115 µM | 0.968
SW1353, 0.1235 µM | 0.932
SW1353, 0.3704 µM | 0.702
SW1353, 1.111 µM | 0.426
SW1353, 3.333 µM | 0.428
SW1353, 10 µM | 0.429
SYO-1, 0.00017 µM | 0.957
SYO-1, 0.00051 µM | 0.982
SYO-1, 0.00152 µM | 0.96
SYO-1, 0.00457 µM | 0.961
SYO-1, 0.01372 µM | 0.942
SYO-1, 0.04115 µM | 0.966
SYO-1, 0.1235 µM | 0.941
SYO-1, 0.3704 µM | 0.896
SYO-1, 1.111 µM | 0.3561
SYO-1, 3.333 µM | 0.287
SYO-1, 10 µM | 0.305
VA-ES-BJ, 0.00017 µM | 1.05
VA-ES-BJ, 0.00051 µM | 1.03
VA-ES-BJ, 0.00152 µM | 1.02
VA-ES-BJ, 0.00457 µM | 1.03
VA-ES-BJ, 0.01372 µM | 1.05
VA-ES-BJ, 0.04115 µM | 0.961
VA-ES-BJ, 0.1235 µM | 0.772
VA-ES-BJ, 0.3704 µM | 0.53
VA-ES-BJ, 1.111 µM | 0.43
VA-ES-BJ, 3.333 µM | 0.403
VA-ES-BJ, 10 µM | 0.2992
